Key:
[1] = target: Glucagon-like peptide 1 receptor (Homo sapiens, UniProt P43220); experiment: Agonist activity at GLP1R expressed in HEK293 cells assessed as stimulation of cAMP production by luciferase reporter gene assay; assay type: functional, cell-based
Glucagon receptor = Glucagon receptor (Homo sapiens, UniProt P47871); experiment: Agonist activity at GCGR expressed in HEK293 cells assessed as stimulation of cAMP production by luciferase reporter gene assay; assay type: functional, cell-based
Sequence of Glucagon receptor (P47871 whole entry): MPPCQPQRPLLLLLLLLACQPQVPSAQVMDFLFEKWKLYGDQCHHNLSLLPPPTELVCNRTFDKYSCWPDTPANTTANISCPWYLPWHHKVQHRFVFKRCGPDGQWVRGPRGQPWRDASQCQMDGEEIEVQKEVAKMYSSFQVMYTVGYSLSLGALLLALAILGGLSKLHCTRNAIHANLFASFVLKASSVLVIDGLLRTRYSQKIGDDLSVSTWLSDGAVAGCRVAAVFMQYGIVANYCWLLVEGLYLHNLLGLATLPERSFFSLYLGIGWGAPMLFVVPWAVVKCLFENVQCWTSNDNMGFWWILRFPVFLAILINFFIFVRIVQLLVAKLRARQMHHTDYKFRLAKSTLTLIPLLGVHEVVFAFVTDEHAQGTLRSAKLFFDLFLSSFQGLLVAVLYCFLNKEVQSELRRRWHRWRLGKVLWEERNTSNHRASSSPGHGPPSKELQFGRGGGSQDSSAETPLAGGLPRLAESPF

Sequence of Glucagon-like peptide 1 receptor (P43220 whole entry): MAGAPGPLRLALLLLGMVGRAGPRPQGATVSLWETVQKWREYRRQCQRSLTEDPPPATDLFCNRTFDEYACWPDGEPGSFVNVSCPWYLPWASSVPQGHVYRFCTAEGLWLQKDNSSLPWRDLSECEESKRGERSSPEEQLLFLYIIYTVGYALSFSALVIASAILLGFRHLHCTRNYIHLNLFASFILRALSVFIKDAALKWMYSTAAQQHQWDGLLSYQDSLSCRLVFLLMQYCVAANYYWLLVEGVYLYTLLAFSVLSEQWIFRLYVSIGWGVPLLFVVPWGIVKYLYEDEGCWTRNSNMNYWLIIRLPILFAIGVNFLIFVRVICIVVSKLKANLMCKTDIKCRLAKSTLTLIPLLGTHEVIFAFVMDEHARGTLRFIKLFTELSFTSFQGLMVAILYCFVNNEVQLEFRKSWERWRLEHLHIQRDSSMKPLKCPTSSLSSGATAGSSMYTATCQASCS

## CSCC[C@H](NC(=O)[C@H](CC(C)C)NC(=O)[C@H](Cc1c[nH]c2ccccc12)NC(=O)[C@H](C)NC(=O)[C@@H](NC(=O)[C@H](Cc1ccccc1)NC(=O)[C@H](CC(=O)O)NC(=O)[C@H](CCCCN)NC(=O)[C@H](C)NC(=O)[C@H](CCCN=C(N)N)NC(=O)[C@H](CCCN=C(N)N)NC(=O)[C@H](CCC(=O)O)NC(=O)[C@H](CC(=O)O)NC(=O)[C@H](CC(C)C)NC(=O)[C@H](Cc1ccc(O)cc1)NC(=O)[C@H](CCCCN)NC(=O)[C@H](CO)NC(=O)[C@H](Cc1ccc(O)cc1)NC(=O)[C@H](CC(=O)O)NC(=O)[C@H](CO)NC(=O)[C@@H](NC(=O)[C@H](Cc1ccccc1)NC(=O)[C@@H](NC(=O)CNC(=O)[C@H](CCC(N)=O)NC(=O)[C@H](CO)N[C@@H](Cc1cnc[nH]1)C(=O)O)[C@@H](C)O)[C@@H](C)O)C(C)C)C(=O)N[C@@H](CC(N)=O)C(=O)N[C@H](C(N)=O)[C@@H](C)O
[1]
  EC50: 0.087 nM
Glucagon receptor
  EC50: 0.08 nM

From ChEMBL document CHEMBL1221226 (Nat Chem Biol, 2009)
